The values that follow come from ChEMBL document CHEMBL1221327, “Allicin and derivates are cysteine protease inhibitors with antiparasitic activity” (Bioorg Med Chem Lett, 2010).

Assay [1] has as its target T1, Cathepsin B (Homo sapiens, UniProt P07858). Description: Inhibition of cathepsin B.
Assay [2] addresses T2, Procathepsin L (Homo sapiens, UniProt P07711). Description: Inhibition of cathepsin L.
Target sequence in this assay (P07711 whole entry): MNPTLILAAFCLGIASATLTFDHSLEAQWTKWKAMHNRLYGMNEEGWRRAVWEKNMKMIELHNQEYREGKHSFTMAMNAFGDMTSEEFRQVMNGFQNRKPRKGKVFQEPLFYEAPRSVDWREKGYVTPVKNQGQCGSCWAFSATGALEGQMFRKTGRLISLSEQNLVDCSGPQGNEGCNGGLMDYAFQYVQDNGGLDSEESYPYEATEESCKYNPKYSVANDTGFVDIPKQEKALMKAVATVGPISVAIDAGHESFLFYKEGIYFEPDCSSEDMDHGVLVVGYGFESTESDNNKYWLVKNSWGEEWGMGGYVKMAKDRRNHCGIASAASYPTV
Assay [3] is described as follows: Inhibition of Plasmodium falciparum falcipain-2.
The target of the next assay is Rhodesain (Trypanosoma brucei rhodesiense, UniProt Q95PM0). The experiment in a line: Inhibition of Trypanosoma brucei rhodesiense rhodesain.
Sequence of Rhodesain (Q95PM0 whole entry): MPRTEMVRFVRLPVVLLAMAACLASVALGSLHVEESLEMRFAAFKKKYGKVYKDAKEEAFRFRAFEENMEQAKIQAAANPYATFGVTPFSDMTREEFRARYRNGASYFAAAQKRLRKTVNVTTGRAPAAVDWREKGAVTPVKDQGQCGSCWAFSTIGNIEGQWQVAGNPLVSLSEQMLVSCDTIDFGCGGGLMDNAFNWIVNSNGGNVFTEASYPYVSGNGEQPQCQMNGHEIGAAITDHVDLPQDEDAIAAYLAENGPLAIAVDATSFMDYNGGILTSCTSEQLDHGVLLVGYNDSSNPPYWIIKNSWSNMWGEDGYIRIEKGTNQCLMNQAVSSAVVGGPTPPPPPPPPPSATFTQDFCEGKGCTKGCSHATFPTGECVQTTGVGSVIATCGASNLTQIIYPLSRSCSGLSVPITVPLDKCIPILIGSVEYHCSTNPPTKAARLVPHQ
Assay [4] deals with Plasmodium falciparum. Description: Antiparasitic activity against Plasmodium falciparum. The assay is classed as functional, organism-based.
Assay [5] concerns Plasmodium falciparum. The experiment in a line: Time dependent inhibition of Plasmodium falciparum falcipain-2 by Dixon plot analysis.
The target in assay [6] is Rhodesain (Trypanosoma brucei rhodesiense) (UniProt Q95PM0). Description: Time dependent inhibition of Trypanosoma brucei rhodesiense rhodesain by Dixon plot analysis.
Sequence of Rhodesain (Trypanosoma brucei rhodesiense) (Q95PM0 1-450): as the sequence (Q95PM0 whole entry) above
In assay [7] the target is T1, Cathepsin B. The experiment in a line: Inhibition of cathepsin B at 100 uM.
Assay [8] addresses T2, Procathepsin L. Description: Inhibition of cathepsin L at 100 uM.
Target sequence in this assay (P07711 114-333 limits assumed): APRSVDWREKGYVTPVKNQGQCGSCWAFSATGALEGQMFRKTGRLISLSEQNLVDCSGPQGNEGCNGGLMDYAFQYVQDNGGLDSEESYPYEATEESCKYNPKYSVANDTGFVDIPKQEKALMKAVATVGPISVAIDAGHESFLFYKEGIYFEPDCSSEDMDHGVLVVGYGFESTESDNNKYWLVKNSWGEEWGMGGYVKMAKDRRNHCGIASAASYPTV
Assay [9] has as its system Trypanosoma brucei brucei. The experiment in a line: Antiparasitic activity against Trypanosoma brucei brucei. The assay is classed as functional, organism-based.
The test system of assay [10] is Plasmodium falciparum. The experiment in a line: Inhibition of Plasmodium falciparum falcipain-2 at 100 uM.
The target of assay [11] is T2, Procathepsin L. Description: Time dependent inhibition of cathepsin L by Dixon plot analysis.
Target sequence in this assay (P07711 114-333 limits assumed): as above
The target of assay [12] is T2, Procathepsin L. Description: Inhibition of cathepsin L at 20 uM.
Target sequence in this assay (P07711 114-333 limits assumed): as above
In assay [13] the test system is Plasmodium falciparum. Description: Inhibition of Plasmodium falciparum falcipain-2 at 20 uM.
The target in assay [14] is Rhodesain (Trypanosoma brucei rhodesiense) (UniProt Q95PM0). Description: Inhibition of Trypanosoma brucei rhodesiense rhodesain at 20 uM.
The target in assay [15] is T1, Cathepsin B. Conditions: 20 uM.
Description: Inhibition of cathepsin B at 20 uM

The source made the active and inactive calls. No cut-off for these calls is given here.

As for `[O-][S+](Cc1ccccc1)SCc1ccccc1` (stereo unspecified), the Ki was determined as 7.8 µM on Cathepsin B [1], 31.7 µM at Procathepsin L [2], 4.5 µM in assay [3] and 2.31 µM at Rhodesain. In the assay on Plasmodium falciparum [4], the midpoint of inhibition, the IC50, lay at 30.3 µM. For the same compound, the TDI in the assay with Plasmodium falciparum [5] worked out at 48600 min⁻¹ M⁻¹; in assay [6] it was 7800 min⁻¹ M⁻¹.
As for `CC(C)(C)S[S+]([O-])C(C)(C)C` (stereo unspecified), the inhibition entry on Cathepsin B [7] and on Procathepsin L [8] was “inactive” each time. In addition, the Ki (in [3]; at Rhodesain) was greater than 100 µM each time. For the same compound, the IC50 with Plasmodium falciparum [4] was 72.5 µM; in assay [9], greater than 40 µM.
On to `[O-][S+](SC1CCCCC1)C1CCCCC1` (stereo unspecified), for which the Ki (at Cathepsin B [1]; on Procathepsin L [2]; in assay [3]; at Rhodesain) was greater than 100 µM in each case. For the same compound, the IC50 in the assay with Plasmodium falciparum [4] worked out at 34.4 µM.
`CC(C)(C)S[S+]([O-])Cc1ccccc1` (stereo unspecified): the inhibition entry on Cathepsin B [7] and with Plasmodium falciparum [10] was “inactive” each time. Besides, the Ki on Procathepsin L [2] and at Rhodesain was greater than 100 µM in each case. The results for the IC50 (in the assay on Plasmodium falciparum [4]; in assay [9]) were 52.9 µM and 11.9 µM, respectively.
For `CCCS[S+]([O-])CCC` (stereo unspecified), the Ki on Cathepsin B [1] came to 15.6 µM; on Procathepsin L [2], 11.3 µM; in assay [3], 26.4 µM; at Rhodesain, 4.44 µM. The TDI is 6660 min⁻¹ M⁻¹ at Procathepsin L [11], 10800 min⁻¹ M⁻¹ with Plasmodium falciparum [5] and 7150 min⁻¹ M⁻¹ in [6]. Moreover, the IC50 was 78.3 µM with Plasmodium falciparum [4] and greater than 40 µM in assay [9].
Regarding `CCCCCCS[S+]([O-])CCCCCC` (stereo unspecified), the Ki at Cathepsin B [1] amounted to 5.94 µM; at Procathepsin L [2], 10.4 µM; in assay [3], 1.8 µM; on Rhodesain, 1 µM. For the same compound, the IC50 with Plasmodium falciparum [4] is 10.9 µM; in [9] it was 3.08 µM. In addition, the TDI with Plasmodium falciparum [5] is 44100 min⁻¹ M⁻¹; in [6], 83500 min⁻¹ M⁻¹.
For `C=CCS[S+]([O-])CC=C` (stereo unspecified) [ALLICIN], the Ki at Cathepsin B [1] amounted to 8.6 µM; on Procathepsin L [2], 9.3 µM; in [3], 1.04 µM; at Rhodesain, 5.31 µM. Moreover, the IC50 in the assay on Plasmodium falciparum [4] is 5.21 µM; in assay [9], 13.8 µM. The inhibition result (at Procathepsin L [12]; in the assay on Plasmodium falciparum [13]; in assay [14]; at Cathepsin B [15]) was “inactive” each time.
As to `CC(C)CCS[S+]([O-])CCC(C)C` (stereo unspecified), the Ki on Cathepsin B [1] is 18.9 µM; at Procathepsin L [2], 3.4 µM; in assay [3], 3.04 µM; on Rhodesain, 0.36 µM. In the assay with Plasmodium falciparum [4], this compound had an IC50 of 54.7 µM.

The Ki is a dissociation constant, usually derived from enzyme kinetics or from competition with a known ligand. Higher therefore signals weaker binding. In general, IC50 refers to the concentration that gives 50% inhibition. A higher IC50 goes with lower potency.
